Consider two molecules from patent publication US11723907B2, “Anti-aging compounds” (THE CLEVELAND CLINIC FOUNDATION, priority 2017, dated 2023).

In one assay the test system is cytochrome c. As to the kind of experiment: Enzymatic NAD(P)H oxidation / cytochrome c reduction catalyzed by N2N1. Format: biochemical. The method, then: FIGS. 5A-5C provide graphs and schemes relating to the N2N1 mechanism of action. […] No specific substrate was added into reaction mix, therefore, it was concluded that reaction was driven by slow reduction of molecular oxygen dissolved into reaction buffer. The hypothetical reaction equation is shown below reaction plots. (B) The proposed molecular mechanism of possible substrate reduction catalyzed by N2N1. (C) Addition of peroxide or cytochrome c into reaction allowed us to identify cytochrome c as the most preferable substrate for the N2N1 driven enzymatic reaction. […] It was interesting to notice that addition of cytochrome c to non-enzymatic reaction reduced the reaction rate. […] The hypothetical reaction equation is show below the reaction plots.
FIGS. 6A-6B provide graphs showing the enzymatic reduction of cytochrome C catalyzed by N2N1 can utilize both NADH and NADPH. (A) The enzymatic electrons transfer from NADH to cytochrome c driven by N2N1 was monitored by decrease in absorption at 340 nm (NADH) and increase in absorption at 550 nm (cytochrome c). The absorbance spectrum was screened at the end of the reaction (˜1 hour). The hypothetical reaction equation is shown below the reaction plots. (B) The enzymatic electrons transfer from NADPH to cytochrome c driven by N2N1 was monitored by decrease in absorption at 340 nm (NADPH) and increase in absorption at 550 nm (cytochrome c). The hypothetical reaction equation is shown below the reaction plots.
To evaluate possible participation of mitochondrial NADH oxidoreductases, in particular Complex I and III, the […] was run in the presence of rotenone or antimycin A (2 μM). The acquired data allowed us to specify the most probable candidate that carry out the transfer electrons from NAD(P)H to cytochrome C driven by N2N1. The NQO1 protein would be the most likely candidate, while proteins from CYB5 family still cannot be ruled out.
Bonkowski et al., Nature reviews. Molecular cell biology 17, 679-690 (2016); Orr et al., Antioxidants & redox signaling 19, 788-803 (2013). It quite possible, that NAD(P)H oxidation catalyzed by N2N1 is performed by NADH:cytochrome b5 reductases (CYB5 . . . ) or NAD(P)H:quinone oxidoreductase (NQO1) reductase (FIG. 3C). The inventors found by RNA-seq analysis that fourteen genes from CYB5 family were expressed in normal fibroblast. NQO1 was also detected at the high level of expression. These reductases connect aerobic metabolism with aging by directed electron flow from NAD(P)H to oxygen, cytochrome C, and peroxide. Jimenez-Hidalgo et al., Aging cell 8, 140-151 (2009). […]

Assay [1] is described as follows: Non-enzymatic electron transfer from NAD(P)H to oxidized glutathione. Format: biochemical. The settings on record: potassium phosphate buffer pH 7.0, 37° C. The method, then: FIGS. 4A 4B provide graphs and schemes showing VA's mechanism of action. […] (A) Different concentrations of VA were incubated with GssG in potassium phosphate buffer at pH 7.0, 37° C. […] The effective concentrations of VA were similar to the detected for the extension of RLS in normal or progeroid cells. (B) The proposed molecular mechanism of glutathione reduction catalyzed by VA. The slightly acidic buffers (pH 7.0) supplemented with potassium (100 mM) were the preferable reaction conditions.
Lead compounds were tested on their possible catalytic amelioration of enzyme kinetics with all above mentioned proteins: recombinant and presented in cellular lysates.

In assay [2] the test system is global protein disulfide bonds. As to the kind of experiment: Global protein disulfide bonds (Elman's reagent, biotin-switch assay). Format: cell-based. The settings on record: Elman's reagent or biotin-switch assay. An excerpt:
FIGS. 3A-3C provide graphs and schemes showing the preliminary data that directed the plan to find the mechanism of action of identified anti-aging compounds. (A) Substantial decrease in oxidized sulfhydryl groups were detected after several days of treatment with VA. […] The inventors decided to check if VA can participate in catalytic reactions performed by the enzymes involved in generation of reductive potential or its utilization by transferring the electrons to oxidized disulfide bonds t. […] In particular, catalytic reduction of molecular oxygen and cytochrome c was observed. Therefore, the inventors decided to take into account the most prominent enzymes that were noted to be involved into initiation or prevention aging-like traits.
Based on results obtained on tissue cultured cells (increased RLS) and an increase in the numbers of HSC surrogate cells (LTC-IC or CFU), the inventors set their future goal to develop a novel pharmacological treatment for AA patients and potentially for other BMF. […] The only persistent effect of VA was considerable reduction in global protein disulfide bonds (up to 30%) detected by Elman's reagent or direct labelling of reduced sulfhydryl groups with biotin-switch assay (FIG. 3A). […]

As to `O=C1/C(=N/O)C=Cc2ccccc21` [N2N1, 1-naphthoquinone-2-monoxime], the “catalysis of enzymatic NADH and NADPH conversion” value with cytochrome c (1 μM) was “actively catalyze”. Further, the “time to complete reduction of cytochrome c” value in the assay on cytochrome c (0.5 mM cytochrome c, NADH or NADPH) fell in the range of 10 to 15 min.

Turning to `O=C1NC(=O)C(=NO)C(=O)N1` [VA, 2,4,5,6(1H,3H)-pyrimidine-tetrone 5-oxime], the “rate of NAD(P)H oxidation by GssG” value in assay [1] is recorded as “substantially increase the reaction rate”. In addition, the “reduction in global protein disulfide bonds” value in assay [2] is “up to 30%”.
